Results published in patent US8304393B2, “Epithelial cell growth promoter” (Patent Technology Development Inc., priority 2004, dated 2012).

Columns and labels:
C3H/He female mice = test: Hair regrowth on shaved dorsal skin of telogen-phase mice (Example 6); assay type: in vivo; conditions: 1 mg/ml, 100 μl/mouse once a day topical, 14th day after application
Procedure: A 1 mg portion of the pentapeptide obtained in Example 3 was dissolved in 300 μl of water for injection (product code “057-00456”, a product by Otsuka Pharmaceutical Co.), to which 200 μl of propylene glycol (product code “161-05006”, a product by Wako Pure Chemical Industries) and 500 μl of ethyl alcohol (product code “057-00456”, a product by Wako Pure Chemical Industries) were then added and they were mixed together to prepare an epithelial cell growth promoter in a concentration of 1 mg/ml.
Ten 7-week-old C3H/He female mice were raised for acclimatization for 1 week, and the hair on the dorsal of each mouse in the telogen phase of a hair cycle was shaved with an electric clipper and an electric shaver to prepare experimental animals.
Next, these experimental animals were divided into two groups each containing five mice. The epithelial cell growth promoter was applied at 100 μl/mouse once a day to the shaved area of the first group from the 3rd day after shaving on, while only a mixture of water for injection, propylene glycol, and ethyl alcohol (3:2:5 by volume) was applied as a control to the second group.
Next, these images were computer-processed to calculate with image analysis software the ratio of the hair-regrowth area (the number of pixels of hair-regrowth area/the number of pixels of shaved area) as percentages. […]

HBKs = test: HBK growth test (Example 7, AlamarBlue); assay type: cell-based, C3H/HeN mouse; conditions: for effect on the HBK growth as compared with that of the control: 4 days culture
Source text: (§1) To confirm the cell selectivity of the oligopeptide obtained in Example 3 as an epithelial cell growth promoter, the presence or absence of the cell growth-promoting effect on cells existing in skin tissues, that is, HBKs, epidermal cells, dermal fibroblasts, and hair papilla cells, was examined in the following manner. Incidentally, the same culture medium and test medium as in Example 5 were used.
(§2) The skin of a 5 day-old C3H/HeN mouse was aseptically collected and cut with a surgical knife into samples of strips of approximately 2-mm-wide skin slices. The above-mentioned samples were immersed in a solution prepared by dissolving 500 U/ml of dispase (lot No. 0101, a product by GODO SHUSEI CO.) in DMEM (product code “D-5523”, a product by Sigma) containing 5% by mass of FBS (lot No. 0101, a product by Cansera International Inc.), and then kept standing at 4° C. for 16 hours. Subsequently, epidermis tissues were ablated with tweezers from the skin slices and separated from dermis tissues. The thus obtained epidermis tissues were subjected to the separation of epidermal cells, and the dermis tissues were subjected to the separation of HBKs and dermal fibroblasts.
The thus obtained dermis tissues were immersed in PBS (−) (product code “P-4417”, a product by Sigma) and cut into strips with opthalmological scissors. The strips were immersed into a solution prepared by dissolving 0.2% by mass of collagenase (lot No. 001014W, a product by Nitta Gelatin Inc.) in DMEM containing 5% by mass of FBS, and then digested at 37° C. for 1 hour. The thus obtained dermis digestion solution was centrifuged at 1000 rpm for 5 minutes. The supernatant was removed, and the residue was supplemented with PBS (−) and gently pipetted to prepare a dermis suspension.
For separating dermal fibroblasts and hair bulbs, this dermis suspension was kept standing for 15 minutes to precipitate only the hair bulbs. The “standing to precipitation” procedure was repeated three times. The thus obtained hair bulbs were immersed in a solution preparing by dissolving 0.25% by mass of trypsin in 2.65 mM aqueous EDTA solution, and then treated at 37° C. for 5 minutes to prepare a dispersion solution of HBKs.
(§3) Next, this dispersion solution was centrifuged at 1000 rpm for 5 minutes. After this centrifugation, the supernatant was removed. The thus obtained HBKs were dispersed in a culture medium, then inoculated into a collagen-coated 96-well microplate, and cultured at 37° C. in an atmosphere containing 5% CO2.
(§4) A 1 mg portion of the pentapeptide obtained in Example 3 was added to 232.8 μl of a test medium and dissolved by stirring to prepare a 10 mM solution. Subsequently, this 10 mM solution was stepwise diluted to prepare 6 types of sample solutions each in a concentration of 100 μM (No. 1), 30 μM (No. 2), 10 μM (No. 3), 3 μM (No. 4), 1 (No. 5), and 0.3 μM (No. 6). Only a test medium was used as a control.
(§5) After 24 hours from the inoculation of the cells, the culture solutions were removed, and the cultured cells were washed with an MCDB153 solution. Each of the above mentioned sample solutions was added to the cultured cell at 100 μl/well and cultured at 37° C. in an atmosphere containing 5% CO2. After 4 days, AlamarBlue reagent (registered trademark, cat. No. DAL1100, lot No. AB083002, a product by Biosource International Inc.) was added at 10 μl/well, and the culture was continued at 37° C. in an atmosphere containing 5% CO2. After 2 hours, fluorescence intensity (excitation wavelength: 544 nm, measurement wavelength: 590 nm) was measured with a microplate reader (Model “Fluoroskan Ascent FL”, manufactured by Labsystems) to evaluate the number of cells. A significant difference test was performed by Dunnett's multiple comparison test (software “Super ANOVA V.1.11”, a product by Abacus Concepts).

epidermal cells = test: Epidermal cell growth test (Example 7, AlamarBlue); assay type: cell-based, C3H/HeN mouse; conditions: for effect on the epidermal cells as compared with that of the control: 4 days culture
Source text: as §1, §2
The above-mentioned epidermis tissues were immersed in a solution prepared by dissolving 0.25% by mass of trypsin in 2.65 mM aqueous EDTA solution, and then treated at 37° C. for 5 minutes to prepare a dispersion solution of epidermal cells.
as §3, with “Subsequently,” for “Next,”, “minutes, and” for “minutes. After this centrifugation,”, “epidermal cells” for “HBKs”
as §4, §5

dermal fibroblasts = test: Dermal fibroblast growth test (Example 7, AlamarBlue); assay type: cell-based, C3H/HeN mouse; conditions: 0.3-100 μM, 3 days culture
Source text: as §1
The skin of a 5 day-old C3H/HeN mouse was aseptically collected and cut with a surgical knife into samples of strips of approximately 2-mm-wide skin slices. The above-mentioned samples were immersed in a solution prepared by dissolving 500 U/ml of dispase (lot No. 0101, a product by GODO SHUSEI CO.) in DMEM (product code “D-5523”, a product by Sigma) containing 5% by mass of FBS (lot No. 0101, a product by Cansera International Inc.), and then kept standing at 4° C. for 16 hours. Subsequently, epidermis tissues were ablated with tweezers from the skin slices and separated from dermis tissues. […]
(§6) After 24 hours from the inoculation of the cells, the culture solutions were removed, and the cultured cells were washed with a DMEM solution. […] After 2 hours, fluorescence intensity (excitation wavelength: 544 nm, measurement wavelength: 590 nm) was measured with a microplate reader (Model “Fluoroskan Ascent FL”, manufactured by Labsystems) to evaluate the number of cells.

human hair papilla cells = test: Hair papilla cell growth test (Example 7, AlamarBlue); assay type: cell-based; conditions: 0.3-100 μM, 3 days culture
Source text: as §1
Moreover, human hair papilla cells (product code “602-05”, a product by TOYOBO CO.) were dispersed in a culture medium, then inoculated into a collagen-coated 96-well microplate, and cultured at 37° C. in an atmosphere containing 5% CO2.
as §4, with “Only a test medium was used as a control.” left out
as §6

In the case of `CC[C@H](C)[C@H](NC(=O)[C@@H]1CCCN1C(=O)CN)C(=O)NCC(=O)N[C@@H](CO)C(=O)O` (racemic) [Example 3, glycyl-prolyl-isoleucyl-glycyl-serine], the “hair growth promotion observed in pictures of the shaved areas” value (C3H/He female mice; compared with control group) is reported as “evident hair growth promotion”, the “ratio of the hair-regrowth area” value (C3H/He female mice; n=5, control 36.9±5.7%, p<0.01) is reported as 66.6±3.5% and the “effect on the HBK growth as compared with that of the control” value (HBKs; 0.3 μM (No. 6)) is reported as 101%. For the same compound, the “effect on the HBK growth as compared with that of the control” value (HBKs; 1 μM (No. 5)) was 111%, the “effect on the HBK growth as compared with that of the control” value (HBKs; 3 μM (No. 4)) was 124% and the “effect on the HBK growth as compared with that of the control” value (HBKs; 10 μM (No. 3)) was 141%. For the same compound, the “effect on the HBK growth as compared with that of the control” value (HBKs; 30 μM (No. 2)) was 142%, the “effect on the HBK growth as compared with that of the control” value (HBKs; 100 μM (No. 1)) was 141% and the “concentration at which significant difference from control could be noted” value (HBKs; HBKs, p<0.01, Dunnett's test) was at least 1 µM. The “effect on the epidermal cells as compared with that of the control” value (epidermal cells; 0.3 μM (No. 6)) was 102%, the “effect on the epidermal cells as compared with that of the control” value (epidermal cells; 1 μM (No. 5)) was 110% and the “effect on the epidermal cells as compared with that of the control” value (epidermal cells; 3 μM (No. 4)) was 118%. For the same compound, the “effect on the epidermal cells as compared with that of the control” value (epidermal cells; 10 μM (No. 3)) was 124%, the “effect on the epidermal cells as compared with that of the control” value (epidermal cells; 30 μM (No. 2)) was 127% and the “effect on the epidermal cells as compared with that of the control” value (epidermal cells; 100 μM (No. 1)) was 127%. The “concentration at which significant difference from control could be noted” value (epidermal cells; epidermal cells, 1 μM: p<0.05, 3 μM or higher: p<0.01) was at least 1 µM, the “influence on dermal fibroblast growth” value (dermal fibroblasts) was “no influence” and the “influence on hair papilla cell growth” value (human hair papilla cells) was “no influence”.
